The values that follow come from patent EP0460016B1, “METASTASIS-ASSOCIATED COLLAGENOLYTIC METALLOPROTEINASES” (priority 1989, dated 1990).

Read-outs that look alike come from different tables or passages of the source.

For assay [1], the target named is T1, Mr 88,000 proteinase (88/92 kd type IV collagenolytic metalloproteinase) (Rattus norvegicus, UniProt P50282).
T1 construct: type IV collagenolytic enzymes secreted by mammary adenocarcinoma cells; endogenous in cells; host or cells: rat 13762NF mammary adenocarcinoma cell clones (MTF7-T35.3, MTC, MTLn3-T44.5), serum-free conditioned medium
It is filed as biochemical. The procedure:
(§1) Identification of type IV collagenolytic enzymes secreted by mammary adenocarcinoma cells was performed by electrophoresis of serum-free conditioned media in a type IV collagen-embedded polyacrylamide gel followed by incubation and Coomassie blue staining, based on the methods described by Heussen and Dowdle (24). Type IV procollagen was purified from Engelbreth-Holm-Sworn tumors, dissolved in 0.5 M acetic acid or bovine lens capsule type IV collagen pepsin fragments (Seikagaku America, St. Petersburg, FL) in HCl at pH 3.0, neutralized with Tris and immediately dissolved in 2% SDS. After removing undissolved materials by a brief centrifugation at 18,000 x g, SDS-solubilized type IV collagen was copolymerized with 7.5% acrylamide. In some experiments, each of the following proteins was also embedded in SDS-polyacrylamide gels: rat hemoglobin; rat immunoglobulin G; bovine serum ablumin; bovine plasma fibronectin; bovine alpha-casein; and gelatin from swine skin (Sigma Chemical, St. Louis, MO). Electrophoresis of serum, or other samples such as one obtained from conditioned media, was carried out by the method of Laemmli (25) in polyacrylamide gels containing 0.5 to 1.0 mg/ml of type IV collagen.
(§2) In the case of serum samples, serum (2.5 ul) was mixed with the same volume of sodium dodecyl sulfate sample buffer without reducing agents, and immediately subjected to electrophoresis in a 7.5% polyacrylamide gel containing the protein substrates. After electrophoresis, gels were rinsed twice with 2.5% Triton X-100 in 50 mM Tris-HCl buffer, pH 7.5, and incubated at 37`C for 16 h in 0.15 M NaCl, 10 mM CaCl₂ and 50 mM Tris-HCl buffer, pH 7.5, containing 0.05% NaN₃. Gels were stained with 0.05% Coomassie blue, 10% isopropanol, and 10% acetic acid in H₂0 and these destained with 10% isopropanol and 10% acetic acid in H₂0. Type IV collagenolytic enzymes were detected as transparent bands on the blue background of Coomassie blue-stained slab gels.
(§3) In order to conduct zymography using samples obtained by the preparation of conditioned media, the following steps were performed. Mammary adenocarcinoma cells (1 x 10⁶ cells) were seeded in a 10-cm tissue culture plate and cultured for 24 h in […] complete medium containing 10% heat-inactivated FBS. The cells were extensively washed with DPBS and then further cultured in 10 ml of serum-free complete medium. The serum-free culture supernatants were withdrawn and sequentially centrifuged at 800 x g and 18,000 x g, and then aliquots of the supernatants were concentrated with Centricon 30 concentrators (Amicon, Danvers, MA) and mixed with SDS sample buffer.

Another assay has as its system Mr 64,000 proteinase. It is filed as biochemical, rat. The method, then:
as §1, §2, §3

Setting [2] is: 5 mM in incubation buffer, conditioned media from 48 h cultures.
[3] abbreviates: 2 mM in incubation buffer, conditioned media from 48 h cultures.
Where [4] appears, read: 10 mM in incubation buffer, conditioned media from 48 h cultures.

T1 sequence (P50282 108-708): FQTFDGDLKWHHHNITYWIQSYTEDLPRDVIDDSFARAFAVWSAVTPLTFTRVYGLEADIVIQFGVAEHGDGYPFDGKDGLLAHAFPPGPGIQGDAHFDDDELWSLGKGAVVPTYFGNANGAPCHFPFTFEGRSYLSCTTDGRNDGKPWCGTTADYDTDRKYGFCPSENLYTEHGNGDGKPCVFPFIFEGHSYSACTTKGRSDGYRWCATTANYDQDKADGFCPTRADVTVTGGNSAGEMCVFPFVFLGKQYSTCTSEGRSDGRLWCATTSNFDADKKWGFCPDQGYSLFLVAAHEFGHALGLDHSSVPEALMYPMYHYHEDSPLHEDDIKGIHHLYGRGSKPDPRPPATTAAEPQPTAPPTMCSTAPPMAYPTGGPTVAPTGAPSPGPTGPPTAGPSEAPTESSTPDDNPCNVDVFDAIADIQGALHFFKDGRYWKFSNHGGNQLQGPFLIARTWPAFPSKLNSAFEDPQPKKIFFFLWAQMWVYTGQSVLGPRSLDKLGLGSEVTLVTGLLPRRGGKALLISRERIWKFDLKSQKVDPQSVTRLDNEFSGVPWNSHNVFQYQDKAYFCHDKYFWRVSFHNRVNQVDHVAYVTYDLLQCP

Consider `CCN1C(=O)C=CC1=O` [N-ethylmaleimide], for which the enzyme activity entry in assay [1] (setting [2]) is recorded as “did not inhibit”; in assay [1] (5 mM in incubation buffer, conditioned media from 48 h cultures, listed as NEM), “not inhibited”; in the assay with Mr 64,000 proteinase (setting [2]) it was “did not inhibit”.

For the molecule `O=C(O)CN(CCN(CC(=O)O)CC(=O)O)CC(=O)O` [EDTA, ethylenediaminetetraacetic acid], the “active enzyme bands / enzyme activity” value in assay [1] was “did not appear”; in assay [1] (10000 µM) it was “inactive”. Moreover, in the assay with Mr 64,000 proteinase, the active enzyme bands result is “did not appear”.

In the case of `O=S(=O)(F)Cc1ccccc1` [phenylmethylsulfonyl fluoride], the enzyme activity entry in assay [1] (setting [3]) is “did not inhibit”; in assay [1] (2 mM in incubation buffer, conditioned media from 48 h cultures, listed as PMSF), “not inhibited”; in the assay on Mr 64,000 proteinase (setting [3]) it was “did not inhibit”.

As for `c1cnc2c(c1)ccc1cccnc12` [1,10-phenanthroline], the “active enzyme bands / enzyme activity” value is “did not appear” in assay [1] (setting [4]) and “inactive” in assay [1] (10 mM in incubation buffer, conditioned media from 48 h cultures, listed as 1, 10-phenanthroline, 10000 µM). In the assay on Mr 64,000 proteinase (setting [4]), the active enzyme bands entry is listed as “did not appear”.
